Measured values published in patent US20210155604A1, “QUINAZOLINE COMPOUND SERVING AS EGFR TRIPLE MUTATION INHIBITOR AND APPLICATIONS THEREOF” (EAST CHINA UNIVERSITY OF SCIENCE AND TECHNOLOGY, priority 2018, published 2021).

Tests used:
EGFR(WT) = EGFR(WT) (Homo sapiens, UniProt P00533); assay: ELISA kinase activity detection, EGFR(WT); type: biochemical; conditions: ELISA-based EGFR-TK assay, ATP 5 μM; mean ± SD of at least two determinations
Description: (§1) Tyrosine kinase: EGFR(WT) • EGFR^T790M/L858R(LR/TM) • EGFR^T790M/L858R/[…](LR/TM/CS)
(§2) ELISA Kinase Activity Detection
Enzyme-Linked Immunosorbent Assay (ELISA) was used to detect the ability of a kinase to phosphorylate a substrate and calculate the inhibitory effect of a compound on the kinase activity. […]
(§3) The main steps of ELISA are listed as follows: the substrate Poly(Glu, Tyr) 4:1 was diluted with potassium ion-free PBS to 2.5 μg/well, incubated at 37° C. for 12-16 h to coat the ELISA plate for use. An ATP solution (final concentration of 5 μM) diluted with a reaction buffer (50 mM HEPES pH 7.4, 20 mM MgCl2, 0.1 mM MnCl2, 0.2 mM Na3VO4, 1 mM DTT) was added to each well. A compound or solvent control was added, and then a kinase was added to start the reaction at 37° C. in a shaker for 1 h. The plate was washed for three times with T-PBS, and 100 μL of antibody PY99 (diluted in T-PBS containing 5 mg/mL BSA, 1: 500) was added, and incubated in a shaker at 37° C. for 0.5 h. After washing the plate with T-PBS, 100 μL of horseradish peroxidase-labeled goat anti-mouse IgG (diluted in T-PBS containing 5 mg/mL BSA, 1: 2000) was added, and incubated in a shaker at 37° C. for 0.5 h. After washing the plate again, a developing liquid containing 0.03% H2O2, 2 mg/mL OPD (0.1 mol/L, in citrate buffer solution pH 5.4) was added at 100 μL/well, and incubated for 1-10 min at 25° C. in darkness. 50 μL/well of 2 M H2SO4 was added to quench the reaction, and read with a wavelength-tunable microplate reader (SpectraMax Plus384, Molecular Devices) at a wavelength of 490 nm. The IC50 value was obtained from the inhibition curve.

EGFR L858R/T790M (LR/TM) = EGFR L858R/T790M (LR/TM) (Homo sapiens, UniProt P00533, L858R/T790M); assay: ELISA kinase activity detection, EGFR double mutant; type: biochemical; conditions: ELISA-based EGFR-TK assay, ATP 5 μM, mean ± SD
Chain of EGFR L858R/T790M (LR/TM) (P00533 25-1210 T790M/L858R): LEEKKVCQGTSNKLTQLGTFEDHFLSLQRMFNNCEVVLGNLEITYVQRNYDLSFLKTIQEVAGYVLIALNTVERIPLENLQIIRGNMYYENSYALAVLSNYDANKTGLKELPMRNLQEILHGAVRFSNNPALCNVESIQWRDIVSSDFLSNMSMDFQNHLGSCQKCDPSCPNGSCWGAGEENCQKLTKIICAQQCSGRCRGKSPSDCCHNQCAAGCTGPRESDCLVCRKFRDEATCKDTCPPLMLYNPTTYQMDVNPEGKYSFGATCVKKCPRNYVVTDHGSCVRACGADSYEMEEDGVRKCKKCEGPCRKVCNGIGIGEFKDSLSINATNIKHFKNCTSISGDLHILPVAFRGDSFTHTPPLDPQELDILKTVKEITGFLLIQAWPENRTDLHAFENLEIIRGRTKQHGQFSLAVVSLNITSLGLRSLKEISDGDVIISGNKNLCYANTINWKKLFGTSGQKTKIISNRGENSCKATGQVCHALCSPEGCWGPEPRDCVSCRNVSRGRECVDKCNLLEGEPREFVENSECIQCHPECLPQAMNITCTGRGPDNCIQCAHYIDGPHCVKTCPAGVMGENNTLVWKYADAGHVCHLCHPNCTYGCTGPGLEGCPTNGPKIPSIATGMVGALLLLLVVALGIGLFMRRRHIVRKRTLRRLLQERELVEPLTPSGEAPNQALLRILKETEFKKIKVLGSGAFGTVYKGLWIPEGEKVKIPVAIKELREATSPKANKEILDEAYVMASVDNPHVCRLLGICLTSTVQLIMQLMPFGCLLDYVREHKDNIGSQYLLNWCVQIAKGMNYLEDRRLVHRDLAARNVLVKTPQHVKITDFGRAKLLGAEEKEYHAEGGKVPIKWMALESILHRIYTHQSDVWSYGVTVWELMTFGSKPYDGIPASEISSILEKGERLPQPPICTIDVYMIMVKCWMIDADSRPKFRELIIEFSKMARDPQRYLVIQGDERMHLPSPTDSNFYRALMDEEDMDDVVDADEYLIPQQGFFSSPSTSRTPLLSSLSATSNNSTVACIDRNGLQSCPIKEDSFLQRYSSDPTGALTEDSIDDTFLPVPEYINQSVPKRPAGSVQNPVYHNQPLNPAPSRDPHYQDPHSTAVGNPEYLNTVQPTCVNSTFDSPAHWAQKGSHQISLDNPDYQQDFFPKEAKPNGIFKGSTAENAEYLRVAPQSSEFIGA

[1] = target: T1, EGFR L858R/T790M/C797S (LR/TM/CS) (Homo sapiens, UniProt P00533, C797S/L858R/T790M); assay: ELISA kinase activity detection, EGFR triple mutant; type: biochemical; conditions: ELISA-based EGFR-TK assay, ATP 5 μM, mean ± SD
T1 construct: purchased BPS Bioscience
T1 sequence (P00533 25-1210 T790M/C797S/L858R): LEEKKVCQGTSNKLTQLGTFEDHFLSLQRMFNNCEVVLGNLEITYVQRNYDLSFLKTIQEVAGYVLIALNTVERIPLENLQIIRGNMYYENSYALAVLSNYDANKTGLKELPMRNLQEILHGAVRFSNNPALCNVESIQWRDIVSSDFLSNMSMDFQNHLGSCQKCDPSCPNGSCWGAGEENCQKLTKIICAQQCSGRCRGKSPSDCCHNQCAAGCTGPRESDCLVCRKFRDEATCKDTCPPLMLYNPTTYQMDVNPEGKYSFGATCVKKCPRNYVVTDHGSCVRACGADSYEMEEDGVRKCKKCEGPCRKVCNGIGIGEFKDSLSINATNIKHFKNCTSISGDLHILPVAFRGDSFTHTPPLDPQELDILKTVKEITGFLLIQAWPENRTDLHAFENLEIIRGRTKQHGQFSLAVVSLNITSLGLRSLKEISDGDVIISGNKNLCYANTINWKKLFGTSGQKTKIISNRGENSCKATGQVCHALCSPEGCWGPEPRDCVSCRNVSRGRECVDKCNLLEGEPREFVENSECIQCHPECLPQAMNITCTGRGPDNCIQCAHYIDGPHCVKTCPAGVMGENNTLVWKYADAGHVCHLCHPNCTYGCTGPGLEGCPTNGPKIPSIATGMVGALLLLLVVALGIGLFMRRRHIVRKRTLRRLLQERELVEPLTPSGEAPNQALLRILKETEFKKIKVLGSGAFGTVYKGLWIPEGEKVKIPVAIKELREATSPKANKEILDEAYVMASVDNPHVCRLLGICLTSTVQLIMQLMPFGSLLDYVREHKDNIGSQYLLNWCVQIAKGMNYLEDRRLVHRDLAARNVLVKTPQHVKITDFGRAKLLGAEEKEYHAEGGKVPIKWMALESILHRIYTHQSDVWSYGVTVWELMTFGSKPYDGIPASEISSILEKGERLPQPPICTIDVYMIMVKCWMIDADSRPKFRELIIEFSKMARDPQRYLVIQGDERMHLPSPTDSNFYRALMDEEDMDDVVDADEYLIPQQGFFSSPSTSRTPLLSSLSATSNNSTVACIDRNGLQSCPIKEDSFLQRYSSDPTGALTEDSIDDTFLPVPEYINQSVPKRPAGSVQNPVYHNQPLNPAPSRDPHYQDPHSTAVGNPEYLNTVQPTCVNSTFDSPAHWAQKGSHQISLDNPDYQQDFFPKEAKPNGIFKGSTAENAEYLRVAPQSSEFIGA
Description: as §1, §2
Enzyme-Linked Immunosorbent Assay (ELISA) was used to detect the ability of a kinase to phosphorylate a substrate and calculate the inhibitory effect of a compound on the kinase activity. The used kinase was EGFR L858R/T790M/C797S (purchased from BPS Bioscience).
as §3

Chain of EGFR(WT) (P00533 25-1210): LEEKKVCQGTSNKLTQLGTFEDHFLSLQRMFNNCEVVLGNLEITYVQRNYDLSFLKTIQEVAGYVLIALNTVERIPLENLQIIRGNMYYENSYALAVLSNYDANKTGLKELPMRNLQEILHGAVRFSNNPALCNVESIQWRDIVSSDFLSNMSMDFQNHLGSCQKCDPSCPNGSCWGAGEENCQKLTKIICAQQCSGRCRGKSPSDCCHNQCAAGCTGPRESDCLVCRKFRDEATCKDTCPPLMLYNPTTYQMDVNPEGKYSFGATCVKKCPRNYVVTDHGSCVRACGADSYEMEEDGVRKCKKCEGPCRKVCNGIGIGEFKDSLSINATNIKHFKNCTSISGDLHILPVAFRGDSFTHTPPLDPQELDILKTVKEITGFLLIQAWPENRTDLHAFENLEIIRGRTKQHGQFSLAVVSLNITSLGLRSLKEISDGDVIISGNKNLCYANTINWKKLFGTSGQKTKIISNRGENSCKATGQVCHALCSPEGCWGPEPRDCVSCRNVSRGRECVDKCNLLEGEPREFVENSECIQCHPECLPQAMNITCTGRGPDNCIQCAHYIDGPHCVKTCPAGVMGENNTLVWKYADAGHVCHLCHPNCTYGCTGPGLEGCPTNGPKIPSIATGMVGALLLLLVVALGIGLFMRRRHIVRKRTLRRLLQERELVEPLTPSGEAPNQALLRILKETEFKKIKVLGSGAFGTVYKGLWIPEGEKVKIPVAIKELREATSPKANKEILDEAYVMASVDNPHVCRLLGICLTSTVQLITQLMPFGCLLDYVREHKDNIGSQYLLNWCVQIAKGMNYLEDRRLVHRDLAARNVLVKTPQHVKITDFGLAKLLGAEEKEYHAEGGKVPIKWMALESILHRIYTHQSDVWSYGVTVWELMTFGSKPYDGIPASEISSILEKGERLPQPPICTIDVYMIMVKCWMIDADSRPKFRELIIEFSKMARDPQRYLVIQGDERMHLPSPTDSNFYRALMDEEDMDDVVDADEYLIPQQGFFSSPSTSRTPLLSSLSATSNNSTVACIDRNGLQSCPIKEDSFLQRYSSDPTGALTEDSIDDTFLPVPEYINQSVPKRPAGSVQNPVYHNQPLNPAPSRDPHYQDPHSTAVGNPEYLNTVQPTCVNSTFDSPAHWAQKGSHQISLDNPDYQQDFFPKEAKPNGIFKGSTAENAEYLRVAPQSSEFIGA

IC50 (EGFR(WT)) [nM]	IC50 (EGFR L858R/T790M (LR/TM)) [nM]	IC50 [1] [nM]	melting point [°C]	Compound
388 ± 55.3	> 10000	> 10000	–	COc1cc2nc(N)nc(Nc3ccc(NC(=O)C(c4ccccc4)N4Cc5ccccc5C4=O)cc3F)c2cc1OC (stereo not drawn) [Example 27, (4-((2-amino-6,7-dimethoxyquinazolin-4-yl)amino)-3-fluorophenyl)-2-(1-oxoisoindoline-2-yl)-2-phenylacetamide]
1100 ± 180	3030 ± 689	> 10000	–	COc1cc2c(Nc3cc(NC(=O)CC4Cc5ccccc5C4)ccc3F)ncnc2cc1OCC1CCN(C)CC1 [Example 6, 2-(2,3-Dihydro-1H-inden-2-yl)-N-(4-fluoro-3-((6-methoxy-7-((1-methylpiperidin-4-yl)methoxy)quinazolin-4-yl)amino)phenyl)acetamide]
1.6 ± 0.3	7.3 ± 1.3	97.5 ± 12.9	–	COc1cc2ncnc(Nc3ccc(NC(=O)C(c4ccccc4)N4Cc5ccccc5C4=O)cc3F)c2cc1OCCCN1CCOCC1 (stereo not drawn) [Example 25, (3-Fluoro-4-((7-methoxy-6-(3-morpholinopropoxy)quinazolin-4-yl)amino)phenyl)-2-(1-oxoisoindolin-2-yl)-2-phenylacetamide]
1 ± 0.2	4.8 ± 0.7	19.1 ± 4.6	–	COc1cc2ncnc(Nc3ccc(NC(=O)C(c4ccccc4)N4Cc5ccccc5C4=O)cc3F)c2cc1OCN1CCN(C)CC1 (stereo not drawn) [Example 24]
16.1 ± 4.8	8.5 ± 0.7	37.1 ± 18.8	–	COc1cc2ncnc(Nc3ccc(NC(=O)C(c4ccccc4)N4Cc5ccccc5C4=O)cc3F)c2cc1OC (stereo not drawn) [Example 17]
2.5 ± 0.8	35.3 ± 12.1	27.5 ± 17.7	–	COc1cc2c(Nc3ccc(NC(=O)C(c4cc(F)ccc4F)N4Cc5ccccc5C4=O)cc3F)ncnc2cc1OCC1CCN(C)CC1 (stereo not drawn) [Example 28, 2-(2,5-Difluorophenyl)-N-(3-fluoro-4-((6-methoxy-7-((1-methylpiperidin-4-yl)methoxy)quinazolin-4-yl)amino)phenyl)-2-(1-oxoisoindolin-2-yl)acetamide]
0.8 ± 0.3	2.4 ± 0.5	18 ± 8.6	–	COc1cc2ncnc(Nc3ccc(NC(=O)C(c4ccccc4)N4Cc5ccccc5C4=O)cc3F)c2cc1OCC1CCN(C)CC1 (stereo not drawn) [Example 23]
68.3 ± 13	1380 ± 235	> 10000	–	COc1cc2c(Nc3ccc(NC(=O)CC4Cc5ccccc5C4)cc3F)ncnc2cc1OCC1CCN(C)CC1 [Example 5]
5.6 ± 3.3	1000 ± 435	1300 ± 308	257 to 257.2	COc1cc2c(Nc3ccc(NC(=O)C(c4ccccc4)c4ccccc4)cc3F)ncnc2cc1OCC1CCN(C)CC1 [Example 11, N-(3-fluoro-4-((6-methoxy-7-((1-methylpiperidin-4-yl)methoxy)quinazolin-4-yl)amino)phenyl)-2,2-diphenyl]
2.6 ± 1.3	4630 ± 825	5570 ± 1000	–	COc1cc2c(Nc3ccc(OCc4ccccc4)cc3)ncnc2cc1OCC1CCN(C)CC1 [Example 7, N-(4-(benzyloxy)phenyl)-6-methoxy-7-((1-methylpiperidin-4-yl)methoxy)quinazolin-4-amine]
7.7 ± 1.8	2560 ± 800	4810 ± 2920	199.6 to 199.8	COc1cc2c(Nc3ccc(NC(=O)C(C)c4ccccc4)cc3F)ncnc2cc1OCC1CCN(C)CC1 (stereo not drawn) [Example 9, N-(3-Fluoro-4-((6-methoxy-7-((1-methylpiperidin-4-yl)methoxy)quinazolin-4-yl)amino)phenyl)-2-phenylpropionamide]
23.1 ± 8.3	2030 ± 755	3190 ± 2500	196 to 196.2	COc1cc2c(Nc3ccc(NC(=O)C(c4ccccc4)C(C)C)cc3F)ncnc2cc1OCC1CCN(C)CC1 (stereo not drawn) [Example 10, N-(3-Fluoro-4-((6-methoxy-7-((1-methylpiperidin-4-yl)methoxy)quinazolin-4-yl)amino)phenyl)-3-methyl-2-phenylbutanamide]
3.7 ± 1.6	7560 ± 1200	> 10000	–	COc1cc2c(Nc3ccc(NC(=O)Cc4ccccc4)cc3F)ncnc2cc1OCC1CCN(C)CC1 [Example 3, N-(3-Fluoro-4-((6-methoxy-7-((1-methylpiperidin-4-yl)methoxy)quinazolin-4-yl)amino)phenyl)-2-phenylacetamide]
1.3 ± 0.3	3.2 ± 0.8	14.5 ± 3.3	–	COc1cc2c(Nc3ccc(NC(=O)C(c4ccccc4)N4Cc5ccccc5C4=O)cc3F)ncnc2cc1OCC1CCN(C)CC1 (stereo not drawn) [Example 12]
1350 ± 312	> 10000	> 10000	–	COc1cc2c(Nc3cc(NC(=O)Cc4ccccc4)ccc3F)ncnc2cc1OCC1CCN(C)CC1 [Example 4, N-(4-Fluoro-3-((6-methoxy-7-((1-methylpiperidin-4-yl)methoxy)quinazolin-4-yl)amino)phenyl)-2-phenylacetamide]
137 ± 80.2	> 10000	> 10000	–	COc1cc2ncnc(Nc3cc(NC(=O)c4ccccc4)ccc3F)c2cc1OC [Example 16]
–	> 10000	> 10000	–	COc1cc2ncnc(Nc3ccc(NC(=O)c4ccccc4)cc3F)c2cc1OC [Example 15]
59.9 ± 1.8	6630 ± 657	> 10000	–	COc1cc2c(Nc3ccc(NC(=O)c4ccccc4)cc3F)ncnc2cc1OCC1CCN(C)CC1 [Example 1]
1.3 ± 0.6	3.2 ± 1.3	14.5 ± 5.2	–	COc1cc2c(Nc3cc(NC(=O)C(c4ccccc4)N4Cc5ccccc5C4=O)ccc3F)ncnc2cc1OCC1CCN(C)CC1 (stereo not drawn) [Example 18]
53.7 ± 13.8	> 10000	> 10000	–	COc1cc2c(Nc3cc(NC(=O)c4ccccc4)ccc3F)ncnc2cc1OCC1CCN(C)CC1 [Example 2, N-(4-Fluoro-3-((6-methoxy-7-((1-methylpiperidin-4-yl)methoxy)quinazolin-4-yl)amino)phenyl)benamide]
2 ± 0.5	6.7 ± 2.2	13.4 ± 2.7	–	COc1cc2c(Nc3ccc(NC(=O)C(c4cccc(F)c4)N4Cc5ccccc5C4=O)cc3F)ncnc2cc1OCC1CCN(C)CC1 (stereo not drawn) [Example 22, N-(3-Fluoro-4-((6-methoxy-7-((1-methylpiperidin-4-yl)methoxy)quinazolin-4-yl)amino)phenyl)-2-(3fluorophenyl)-2-(1-oxoisoindolin-2-yl)acetamide]
7340 ± 2520	> 10000	> 10000	150.5 to 150.8	COc1cc2c(Nc3ccccc3P(C)(C)=O)ncnc2cc1OCC1CCN(C)CC1 [Example 13, (2-((6-methoxy-7-((1-methylpiperidin-4-yl)methoxy)quinazolin-4-yl)amino)phenyl)dimethyl phosphine oxide]
27.1 ± 12	180 ± 94.9	361 ± 123	–	COc1cc2c(Nc3ccc(NC(=O)C(C4CCCCC4)N4Cc5ccccc5C4=O)cc3F)ncnc2cc1OCC1CCN(C)CC1 (stereo not drawn) [Example 21, 2-cyclohexyl-N-(3-fluoro-4-((6-methoxy-7-((1-methylpiperidin-4-yl)methoxy)quinazoline-4-yl)amino)phenyl)-2-(1-oxoisoindolin-2-yl)acetamide]
0.7 ± 0.1	1.5 ± 0.2	8.5 ± 2.6	–	COCCOc1cc2ncnc(Nc3ccc(NC(=O)C(c4ccccc4)N4Cc5ccccc5C4=O)cc3F)c2cc1OCCOC (stereo not drawn) [Example 26, (4-((6,7-bis(2-methoxyethoxy)quinazolin-4-yl)amino)-3-fluorophenyl)-2-(1-oxoisoindolin-2-yl)-2-phenylacetamide]

Compound	IC50 (EGFR(WT)) [nM]	IC50 (EGFR L858R/T790M (LR/TM)) [nM]	IC50 [1] [nM]	melting point [°C]
COc1cc2c(Nc3ccc(NC(=O)[C@@H](c4ccccc4)N4Cc5ccccc5C4=O)cc3F)ncnc2cc1OCC1CCN(C)CC1 [Example 20, (R)—N-(3-Fluoro-4-((6-methoxy-7-((1-methylpiperidin-4-yl)methoxy)quinazolin-4-yl)amino)phenyl)-2-(1-oxoisoindolin-2-yl)-2-phenylacetamide]	3.5 ± 1	6.4 ± 1.6	19.2 ± 3.2	–
COc1cc2c(Nc3ccc(NC(=O)[C@H](c4ccccc4)N4Cc5ccccc5C4=O)cc3F)ncnc2cc1OCC1CCN(C)CC1 [Example 19, (S)—N-(3-Fluoro-4-((6-methoxy-7-((1-methylpiperidin-4-yl)methoxy)quinazolin-4-yl)amino)phenyl)-2-(1-oxoisoindolin-2-yl)-2-phenylacetamide]	4.6 ± 2.8	8.6 ± 2.1	7.9 ± 2	–
